Entries after “also recorded” stand apart in the source; their conditions may differ.
How the values were obtained:
[1] = Lyso-Gb1 level in blood (dried blood spots, LC/MRM-MS) upon continuous subcutaneous administration; format: in vivo, C57BL/6JRj mice
Method: (§1) Animal experimental procedures were carried out at Pharmacelsus GmbH, Saarbrücken, Germany. Adult male C57BL/6JRj mice (10 weeks old, purchased from Janvier Labs, France) were housed in a temperature-controlled room (20-24° C.) and maintained in a 12 h light/12 h dark cycle. Food (Ssniff® R/M-H, 10 mm) and water were provided ad libitum.
All experimental procedures were approved by and conducted in accordance with the regulations of the local Animal Welfare authorities. The lyso-Gb1 stock solution was prepared in DMSO and propylene glycol at 37° C. with ultrasonic bath treatment for 10 min. Subcutaneous administration of lyso-Gb1 (Matreya LLC, USA) was achieved by the use of ALZET pumps implanted in the back of their necks and set to a flow rate of 2.64 μl/day in order to obtain a daily dosage of 10 mg lyso-Gb1/kg body weight. The pumps were loaded with the stock solution and primed prior to implantation according to the manufacturer's instructions.
(§2) Blood sampling was carried out using Li-heparine blood obtained from the lateral tail vein. At each sampling time point 2 aliquots of 20 μl were transferred to dried blood spot filter cards (Centogene AG, Rostock, Germany). After the last sampling time point the mice were sacrificed by inhalation of an overdose of isoflurane and organs were removed, frozen and collected for future examinations. Where applicable, organs were intersected. Half of the organ was immediately frozen in liquid nitrogen. The other half was formalin-fixed and paraffin-embedded for histologic analysis (Histalim, Montpellier, France).
3 punches of 3.2 mm in diameter were cut using a DBS puncher (Perkin Elmer LAS, Germany) and placed in a 2.2 ml round bottom tube (Eppendorf, Germany). 50 μl extraction solution (DMSO: water, 1:1) and 100 μI internal standard solution with the standard being dissolved in ethanol were added on top of the paper punches. Samples were mixed for 30 seconds and placed in an incubator (Heidolph, Schwabach, Germany) for 30 minutes at 37° C. under agitation at 700 rpm. […]
LC-MRM-MS analyses of the lyso-Gb1 for both DBS and organ extracts were performed using a Waters Acquity UPLC (Waters, UK) coupled with an ABSciex 5500 TripleQuad mass spectrometer (ABSciex, Darmstadt, Germany). […] The following MRM transitions were monitored: 624.3-282.2 for the internal standard (with DP of 30V, CE of 38 V and CXP of 10 V) and 462.3→282.2 for lyso-Gb1 (with DP of 28V, CE of 30 V and CXP of 10 V). MRM-MS analyses were performed in positive ion mode using the following parameters: CUR gas 40 psi, IS voltage 5.5 kV, CAD 8 psi, cone temperature 500° C., GS 1 45 psi, GS2 60 psi, EP 10 V. For all batches analyzed a standard curve was measured using 7 dilutions of lyso-Gb1 in ethanol (concentrations in ng/ml: 0; 5; 10; 50; 100; 200; 1000). […]

[2] = Lyso-Gb1 determination in organs (LC/MRM-MS); format: in vivo, C57BL/6JRj mice
Method: After extraction from the animal, the organs were immediately deep-frozen in liquid nitrogen. The samples were lyophilized (Alpha 2-4 LSC, Christ, Osterode am Harz, GER) and powdered with mortar and pistil. Fractions of 2 to 5 mg powder were established in round bottom tubes. On top of the powder, 50 μl per mg powder extraction solution was added and the sample was incubated for 5 minutes at 37° C. under agitation. Subsequently, the samples were frozen in liquid nitrogen for 30 seconds and sonicated with boost function for 5 minutes. The incubation, freezing and sonication steps were repeated 6 times. At the end the mixtures were vortexed and aliquots of 25 μl suspension were used for the lyso-Gb1 determination. Each sample was supplemented with 100 μl Internal Standard (lyso-Gb2, 200 ng/ml) and 250 μl ethanol. The samples were cooled at 4° C. for 1 h to precipitate the membrane proteins and spun in a benchtop centrifuge for 3 minutes at 14.5 krpm. The volume of each sample was quantitatively transferred to a 96-well filter plate and further processed as described above.
LC-MRM-MS analyses of the lyso-Gb1 for both DBS and organ extracts were performed using a Waters Acquity UPLC (Waters, UK) coupled with an ABSciex 5500 TripleQuad mass spectrometer (ABSciex, Darmstadt, Germany). Chromatographic run was performed on a C8 column with pore size of […] (ACE columns, Germany) using a flow rate of 0.9 ml/min preheated at 60° C. The 10 μl extract were injected on the column and the compounds were eluted using a linear gradient from 40% A (50 mM formic acid in water) to 100% B (50 mM formic acid in acetone:acetonitrile vol. 1:1). Upstream from UPLC a 3:1 flow splitter was added. The following MRM transitions were monitored: 624.3-282.2 for the internal standard (with DP of 30V, CE of 38 V and CXP of 10 V) and 462.3→282.2 for lyso-Gb1 (with DP of 28V, CE of 30 V and CXP of 10 V). MRM-MS analyses were performed in positive ion mode using the following parameters: CUR gas 40 psi, IS voltage 5.5 kV, CAD 8 psi, cone temperature 500° C., GS 1 45 psi, GS2 60 psi, EP 10 V. For all batches analyzed a standard curve was measured using 7 dilutions of lyso-Gb1 in ethanol (concentrations in ng/ml: 0; 5; 10; 50; 100; 200; 1000).
After 4 weeks from treatment start the organs of the mice were subjected to lyso-Gb1 analysis.

[3] = Lyso-Gb1 in 24 hr urine (LC/MRM-MS); format: in vivo, C57BL/6JRj mice; conditions: 6 weeks after treatment start
Method: 25 μL urine aliquots were added to 100 μL of internal standard and 250 μL ethanol. The samples were cooled to 4° C. for 1 h to precipitate the urine proteins, after which they were spun in a benchtop centrifuge for 3 minutes at 14,500 rpm. The volume of each sample was quantitatively transferred to a 96-well plate, and further processed as described above.
LC-MRM-MS analyses of the lyso-Gb1 for both DBS and organ extracts were performed using a Waters Acquity UPLC (Waters, UK) coupled with an ABSciex 5500 TripleQuad mass spectrometer (ABSciex, Darmstadt, Germany). Chromatographic run was performed on a C8 column with pore size of […] (ACE columns, Germany) using a flow rate of 0.9 ml/min preheated at 60° C. […] The following MRM transitions were monitored: 624.3-282.2 for the internal standard (with DP of 30V, CE of 38 V and CXP of 10 V) and 462.3→282.2 for lyso-Gb1 (with DP of 28V, CE of 30 V and CXP of 10 V). MRM-MS analyses were performed in positive ion mode using the following parameters: CUR gas 40 psi, IS voltage 5.5 kV, CAD 8 psi, cone temperature 500° C., GS 1 45 psi, GS2 60 psi, EP 10 V. For all batches analyzed a standard curve was measured using 7 dilutions of lyso-Gb1 in ethanol (concentrations in ng/ml: 0; 5; 10; 50; 100; 200; 1000).

[4] = Blood count analysis for systemic damage; format: in vivo, C57BL/6JRj mice
Method: Mice were exsanguinated via the retrobulbar venous plexus under isoflurane anesthesia before being sacrificed by overdose inhalation. 200 μL EDTA samples of whole blood were drawn from each animal to analyze […], leukocyte count, erythrocyte count, hemoglobin (Hb), hematocrit (PCV=packed cell volume, Hct), mean cell volume (MCV), mean cell Hb (MCH), mean cell Hb concentration. (MCHC) and platelet count (PLT) (IDEXX Bioresearch, Ludwigsburg, Germany).
3.1 It was tested whether the high lyso-Gb1 levels caused systemic damage to the animals. Such systemic damage was assessed by blood count analysis.

Organ weight analysis = format: in vivo, C57BL/6JRj mice
Method: as §2
3.2 As anemia is a frequent result of enlarged spleen, another hallmark of Gaucher disease, an organ weight analysis, a Western blot analysis and size and color analysis of the spleen was carried out. The results thereof are shown in FIG. 4A, FIG. 4B and FIG. 4C.

F4/80 and CD68 = test: Western blot of inflammatory tissue markers F4/80 and CD68 in spleen and liver; format: in vivo, C57BL/6JRj mice
Method: Livers and spleens were homogenized in RIPA buffer containing proteinase and phosphatase inhibitor (Roche, Mannheim, GER). Lysates were centrifuged at 15,000 g, 4° C. for 15 min to remove insoluble pellet, and supernatant was collected. Protein concentration was measured using Pierce BCA Protein Assay Kit (Thermo Fisher Scientific, Waltham, Mass.). Typically, […] protein was loaded for electrophoresis on a 4%-15% precast Tris-glycine gradient gel (BioRad, Mannheim, GER). The protein was subsequently transferred to a nitrocellulose membrane by semidry transfer apparatus (BioRad, Munich, GER) for immunodetection analysis. The target proteins were detected by rat anti F4/80 (1:500, Biolegend, San Diego, Calif.), rat anti-CD68 [FA-11] (1:200 abcam, Cambridge, UK) mouse anti GAPDH (1:10,000, abcam, Cambridge, UK), each in TBST supplemented with 5% skim milk powder (Sigma Aldrich, Munich, GER). Fluorescent conjugate secondary antibodies were applied for the detection with a Li-Cor Odyssey imaging system (Bad Homburg, GER).
In order to investigate the molecular changes of both spleen and liver in terms of tissue inflammation macrophagic marker proteins F4/80 and CD68 were analysed.

[5] = Histopathological evaluation (H&E) of spleen, liver and femur; format: in vivo, C57BL/6JRj mice; conditions: data not shown
Method: After removal, organs were fixed in formalin for 24 h and transferred into 70% ethanol. To ensure a non-biased comparison the same parts of organs were analysed by HISTALIM (Montpellier, France). The samples were processed on the Peloris automaton (Leica, Wetzlar, Germany) according to the 4 h program validated for mouse organs. The samples were embedded in paraffin wax according to HISTALIM procedures. For the liver, spleen and femur samples, a section (3-5 μm thickness) was prepared and deposited preferentially on Superfrost+slide (to ensure tissue adhesion) to be stained according to a validated hematoxylin/eosin (H&E) protocol. All the slides were digitalised with the Nanozoomer scanner (Hamamatsu Photonics, Hamamatsu, Japan) in conditions bright field conditions, with the objective×20, without Z stack. Slides were examined by a senior histopathologist to assess the toxicological effects of lyso-Gb1 on the tested mice.

[6] = test system: CD68 and F4/80 positive cells; test: Immunohistochemistry of spleen sections (anti-CD68, anti-F4/80); format: in vivo, C57BL/6JRj mice
Method: For immunohistochemistry 5 μm paraffin sections of the spleens of 8-week treated mice were subjected to rat anti-CD68 clone FA-11 (1:100, Bio-Rad Laboratories, Raleigh, N.C., USA) and rat anti-mouse F4/80 Cl:A3-1 (1:100, BioLegend, San Diego, Calif., USA). Sections were then deparaffinised, rehydrated and pre-treated in the microwaves in 0.1 M citrate buffer (5 min 850 W and 5 min 340 W) followed by consecutive incubation with 3% H2O2 in PBS to block endogenous peroxidases for 30 min, then 3% bovine serum albumin with 1.5% normal goat serum (NGS) in PBS for 1 h to block nonspecific epitopes. Subsequently, sections were exposed to the primary antibody in 3% NGS/PBS overnight at 4° C. Depending on the primary antibody and after washing in PBS, the sections were sequentially incubated for 1 h with the secondary anti-rat or anti-mouse IgG (1:200; Vector, Burlingame, Calif., USA), streptavidin-biotin-complex (ABC) reagent for 1 h (Vectastain-Elite; Vector, Burlingame, Calif., USA) and then finally visualised with 3,-3,-diaminobenzidine (DAB, Sigma, Munich, Germany), which was activated with H2O2. Sections were counterstained with hematoxylin, dehydrated, mounted with DePeX and coverslipped.

TNF-α and IL-1β = test: Cytokine analysis in blood (ProcartaPlex Multiplex Immunoassay); format: in vivo, mice
Method: The ProcartaPlex® Multiplex Immunoassay (ebioscience, San Diego, Calif.) was carried out following the instructions of the provider. Differences between the animal groups were obtained using automated MAGPIX® analysis device software (Luminex, Austin, Tex.) including quality control criteria.

[7] = General health, body weight and behaviour during treatment; format: in vivo, C57BL/6JRj mice
Method: as §1
Ten weeks old C57BL/6JRj mice were subcutaneously treated with high doses (10 mg*kg−1*day−1) of lyso-Gb1 for a period of up to 84 days (12 weeks).

Compound: CCCCCCCCCCCCC/C=C/[C@@H](O)[C@@H](N)CO[C@@H]1O[C@H](CO)[C@@H](O)[C@H](O)[C@H]1O [lyso-Gb1, glucosylsphingosine]
- lyso-Gb1 levels in blood ([1]; 24 hrs after treatment start (data not shown)): strongly elevated
- increase of blood lyso-Gb1 level compared to the vehicle-treated mice ([1]; after 4, 8 and 12 weeks, s.c. 10 mg/kg/day): more than 500 fold
- lyso-Gb1 level in blood ([1]; after 4, 8 and 12 weeks, s.c. osmotic pump, 10 mg lyso-Gb1/kg body weight daily): 700 to 900 ng/mL
- concentration at 4 weeks ([1]; male, C57BL/6JRj, mouse, whole blood (dried blood spots), sc, 10 mg/kg/day, 4 weeks after begin of treatment, s.c. 10 mg*kg−1*day−1): > 500 ng/mL
- organ with highest lyso-Gb1 levels ([2]; 4 weeks from treatment start): kidney and liver
- lyso-Gb1 levels in peripheral organs (heart, kidney, liver, spleen) compared to control animals ([2]; 4 weeks from treatment start, 10 mg*kg^−1*day^−1): strongly elevated
- increase of brain lyso-Gb1 ([2]; 4 weeks from treatment start, attributed to carryover of blood in tissue capillaries): 2 fold
- crossing of the blood brain barrier ([2]; concluded from negligible increase in brain lyso-Gb1): not able to cross the blood brain barrier
- calculated excretion rate of lyso-Gb1 in urine [3]: 0.6 ng/min
- Hb (hemoglobin) values ([4]; 4, 8 and 12 weeks, 2× SD below the baseline value at each time point): mild anemia; also recorded: mild anaemia
- Hct (haematocrit) values ([4]; differed at 4 and 8 weeks after treatment initiation): significantly differed; also recorded: lowered
- thrombocytopenia / white blood cell abnormalities ([4]; up to 12 weeks treatment): no thrombocytopenia or abnormalities in white blood cells
- liver weight versus controls (Organ weight analysis; 8 and 12 weeks): not statistically significantly different; also recorded: not statistically distinct from control animals
- spleen weight versus controls (Organ weight analysis; 8 and 12 weeks from treatment initiation): enlarged
- liver size in subsequent experiment (Organ weight analysis; lyso-Gb1 treatment started earlier (P20), data not shown): marked enlargement of the liver
- size of heart, lung and kidney (Organ weight analysis; mouse, in vivo): normal in size
- F4/80 and CD68 protein levels in liver (Western blot) (F4/80 and CD68; liver): only mild changes
- F4/80 and CD68 protein levels in spleen (Western blot) (F4/80 and CD68; spleen): pronounced increase; also recorded: elevated
- H&E histological stain of spleen, liver and femur, vehicle vs lyso-Gb1 treated [5]: did not reveal significant abnormalities
- number of CD68 and F4/80 positive cells in spleen sections in comparison to vehicle controls ([6]; paraffin sections from spleen): marked increase
- CD68-immunoreactivity in spleen compared to vehicle controls ([6]; spleens of 8-week treated mice): strong increase
- F4/80 immunoreactivity in spleen compared to vehicle controls ([6]; spleens of 8-week treated mice): increased
- TNF-α and IL-1β in the blood (TNF-α and IL-1β): slight elevation
- upregulation of most investigated cytokines (TNF-α and IL-1β): did not find significant upregulation
- behaviour ([7]; mouse, in vivo): no behavioral abnormalities
- body weight / health status ([7]; throughout the experimental phase (up to 12 weeks)): did not lose weight
